Test results reported in patent US12329799B2, “Peptidyl inhibitors of calcineurin-NFAT interaction” (Ohio State Innovation Foundation, priority 2018, dated 2025).
Positions of bridges follow the written chain, without caps; N, C: chain ends. Non-standard residues stand in square brackets, D forms with d. Residues, ends and D or L forms follow the SMILES beside them. Chains are numbered I, II in the order given. *: point of attachment. Benzoyl(2,3-Cl2) = O=C(c1cccc(Cl)c1Cl)*; 2Nal = N[C@@H](Cc1ccc2ccccc2c1)C(=O)O; Tle = CC(C)(C)[C@H](N)C(=O)O; AEEA = NCCOCCOCC(=O)O

Tests used:
in vitro = in vitro ADME; design: dose or concentration left out as unconfirmed; conditions: mouse, plasma; for fraction unbound at 5 h: pH 7.4
Description: (§1) Plasma binding was assessed using mouse plasma obtained from in-life studies. CNI103 was diluted to […] in pre-warmed mouse plasma. The solution was added to the left chamber of a commercial plate based RED (rapid equilibrium dialysis) device. Isotonic sodium phosphate buffer (100 mM sodium phosphate, 100 mM sodium chloride, pH 7.4) was added to the outer chamber of the RED device and the plate was incubated at 37° C. for five hours. Aliquots of the buffer and the plasma were withdrawn before and after the incubation and the concentrations of free and bound test compound were determined by LC/MS/MS analysis. To test for plasma stability, the dosing solution was also incubated at 37° C. for 5 hours and the concentration of CNI103 was determined by LC/MS/MS analysis as described above.
(§2) The calculation of percentage binding is calculated using the following equations and the results are presented in Table 13: Binding %=(Cpe−Cb)/Cpe×100 • Cpe=Conc. of test compound in plasma at equilibrium • Cb=Conc. of test compound in buffer at equilibrium % Stability of test compound=(Conc. of stability sample/Conc. of time zero sample)×100 % Recovery=(Cpe+Cb)/Conc. of stability sample×100

plasma protein = test: in vitro; format: in vitro ADME; design: dose or concentration left out as unconfirmed; conditions: mouse, pH 7.4
Description: as §1, §2

HeLa cells [1] = conditions: 100% = equal cargo concentration in cytosol and extracellular medium; cited from earlier work
[2] = Caco-2 permeability assay; format: in vitro ADME; conditions: human, Caco-2, pH 7.4
Description: (§3) Caco-2 permeability assay. To assay the permeability of test compounds by Caco-2 cell model, Caco-2 cells were cultured to confluency before being trypsinized and seeded onto filter transwell inserts at a density of 30,000 cells/well in DMEM medium. Cells were cultured in a humidified atmosphere with 5% CO2 at 37° C. After overnight attachment, cell medium was replaced with fresh medium at both apical and basolateral sides every other day. The cell monolayers are ready for the assay 20 days post seeding. […] The dosing solution at 10 μM was obtained by diluting 10 mM stock solution in HBSS medium (pH 7.4, 25 mM HEPES) freshly before the assay. Terfenadine (25 ng/mL) and Tolbutamide (50 ng/mL) were added into dosing solution as internal standards. […] The culture medium from either the basolateral side (plate B) or apical side (plate A) were aspirated and then rinsed with HBSS medium once. Afterwards, the dosing medium was added to either basolateral or apical side. Following the incubation, 100 microliter samples from both sides were harvested at time 0 and time 90 min. Samples were quenched with acetonitrile/methanol (1:1 v/v), centrifuged, and analyzed on a Shimadzu reversed-phase HPLC and Sciex API4500 Q trap instrument.
(§4) Permeability parameters were calculated using the following equations and shown in Table 10: Papp=(Conc.receiver,90 min*Volumereceiver)/(Time*Membrane Area*Conc.donor,0 min) Efflux Ratio=Papp[B to A]/Papp[A to B]

Caco-2 cell monolayers = test: Caco-2 permeability assay; format: in vitro ADME
Description: as §3, §4

Serum stability assay = format: in vitro ADME; conditions: 25% human serum, 37° C., 24 h, read-out: degradation in human serum
Description: Serum Stability Assay. Diluted human serum (25%) (H4522 human serum, Sigma) was centrifuged at 15,000 rpm for 10 min, and the supernatant was collected. A peptide stock solution was diluted into the supernatant to a final concentration of 5 μM and incubated at 37° C. At various time points (0-24 h), 200-μL aliquots were withdrawn and mixed with 100 μL of 15% trichloroacetic acid and incubated at 4° C. overnight. The final mixture was centrifuged at 15,000 rpm for 10 min in a microcentrifuge, and the supernatant was analyzed by reversed-phase HPLC equipped with a C18 column. The amount of remaining peptide (%) was determined by integrating the area underneath the peptide peak (monitored at 214 nm) and comparing with that from the peptide at time 0.

Calcineurin (GST-CN) = target: T1, Calcineurin (GST-CN) (Homo sapiens, UniProt Q08209); test: FA-based competition with FITC-labeled peptide 14 for binding to CN; conditions: unlabeled; inhibition of binding of peptide 14 to CN
T1 construct: made in house; host or cells: E. coli BL21
Description: Serial dilutions of competitor peptides were prepared in PBS with 0.01% Trition-X100 and then added to the incubation solution and equilibrated at RT with gentle mixing for 1 h. Samples were pipetted into 384-well black microplates and FP signal was measured using a TECAN Infinite M1000 plate reader and analyzed using GraphPad PRISM v.6.

[3] = test system: NFAT-mediated luciferase expression in Jurkat cells; test: NFAT luciferase assay in Jurkat cells; format: cell-based; conditions: qualitative
Description: In a separate experiment, CNI93 was also tested against Jurkat cells expressing a luciferase gene under the transcriptional control of NFAT.
NFAT Luciferase Assay. Jurkat-Lucia cells maintained in RPMI-1640 supplemented with 10% FBS, 1% penicillin/streptomycin (v/v/v) and 100 μg/mL normocin were harvested after a passage with 50 μg/mL selective antibiotic Zeocin at 300×RCF for 5 min. Cells were resuspended in warm RPMI-1640 with antibiotics but without FBS to a final density of 2×10^6 cells/mL and seeded into white-on-white cell-culture treated 96-well plates. To each well was added 10 μL of DPBS containing compounds which dilute to the desired concentrations followed by 170 μL of cell suspension […] and incubated at 37° C. for 2 h. The cells were induced by treatment with 50 ng/mL PMA and 3 μg/mL ionomycin, Ca^2+ salt in FBS to achieve a final FBS concentration of 10% in each well (with FBS only as control). The plate was incubated for an additional 4 h at 37° C., when 20 μL of each sample was withdrawn and mixed with 50 μL of Quanti-Luc assay solution. The luminescence of the mixture was immediately measured on a Tecan Infinite M1000 plate reader.

Jurkat cells = test: MTT assay, Jurkat; format: cell-based
Description: (§5) MTT Proliferation Assay. HeLa, Jurkat-Lucia, or H441 cells were seeded into a 96-well microplate (5000 cells per well) in full growth media and incubated at 37° C. overnight. A serial dilution of each compound was prepared in DPBS and then added to each well. The treated cells were incubated at 37° C. with 5% CO2 for 72 h. Following compound treatment, 10 μL of MTT stock solution was added to each well. After an additional 4 h at 37° C., 100 μL of SDS-HCl solubilizing solution was added to each well and the plate was returned to the incubator overnight at 37° C. A Tecan Infinite M1000 Pro microplate reader was used the following morning to measure the absorbance of the formazan product at 565 nm.

HeLa cells [4] = test: MTT assay, HeLa; format: cell-based; conditions: MTT, 72 h
Description: as §5
Potential cytotoxicity of CNI101 (SEQ ID NO: 206) and CNI103 (SEQ ID NO: 208) was tested on HeLa cells by the MTT proliferation assay. HeLa cells were seeded into a 96-well microplate (5000 cells per well) in full growth media and incubated at 37° C. overnight. A serial dilution of each inhibitor was prepared in DPBS and then added to each well. The treated cells were incubated at 37° C. with 5% CO2 for 72 h. Following compound treatment, 10 μL of MTT stock solution was added to each well. After an additional 4 h at 37° C., 100 μL of SDS-HCl solubilizing solution was added to each well and the plate was returned to the incubator overnight at 37° C. A Tecan Infinite M1000 Pro microplate reader was used the following morning to measure the absorbance of the formazan product at 565 nm.

T1 sequence (Q08209 2-347 limits assumed): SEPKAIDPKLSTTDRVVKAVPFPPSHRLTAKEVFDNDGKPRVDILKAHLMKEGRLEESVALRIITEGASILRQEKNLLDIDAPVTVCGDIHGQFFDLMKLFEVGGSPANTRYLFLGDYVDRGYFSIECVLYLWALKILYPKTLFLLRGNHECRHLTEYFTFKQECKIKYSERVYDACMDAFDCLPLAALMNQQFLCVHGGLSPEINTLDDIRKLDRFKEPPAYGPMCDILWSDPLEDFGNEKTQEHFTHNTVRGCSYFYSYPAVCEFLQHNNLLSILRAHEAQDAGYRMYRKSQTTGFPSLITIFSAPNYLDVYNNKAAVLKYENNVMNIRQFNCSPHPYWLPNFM

remaining at 5 h (in vitro) [%] | fraction unbound at 5 h (in vitro) | recovery at 5 h (plasma protein) [%] | Compound | other results
101 | 0.086 | 103 | CC(=O)CC(c1ccccc1)c1c(O)c2ccccc2oc1=O (stereo not drawn) [Warfarin] | 
 |  |  | cyclic (fΦRrRrQ) (cyclo([dF][2Nal]R[dR]R[dR]Q); SMILES N=C(N)NCCC[C@@H]1NC(=O)[C@H](Cc2ccc3ccccc3c2)NC(=O)[C@@H](Cc2ccccc2)NC(=O)[C@H](CCC(N)=O)NC(=O)[C@@H](CCCNC(=N)N)NC(=O)[C@H](CCCNC(=N)N)NC(=O)[C@@H](CCCNC(=N)N)NC1=O) [CPP9] | absolute cytosolic delivery efficiency (HeLa cells [1]): 62%
 |  |  | CC(C)NCC(O)COc1cccc2ccccc12 (stereo not drawn) [Propranolol, reference compound] | Papp B→A at 90 min, 10 μM ([2]; N = 2, 10 μM, 90 min): 26 ×10⁻⁶ cm/s; efflux ratio at 90 min, 10 μM ([2]; Papp[B to A]/Papp[A to B]): 0.7; Pgp Substrate (Caco-2 cell monolayers): No
 |  |  | CC[C@H](C)[C@H](NC(=O)[C@@H](NC(=O)c1cccc(Cl)c1Cl)C(C)(C)C)C(=O)N[C@H](C(=O)N[C@H](C(=O)N[C@H](C(=O)N[C@@H](CCC(N)=O)C(=O)N[C@@H](Cc1c[nH]cn1)C(=O)N[C@H](CC(C)C)C(=O)N[C@@H](CO)C(=O)NCCOCCOCC(=O)N[C@@H](CCCCNC(=O)CC[C@@H]1NC(=O)[C@@H](CCCNC(=N)N)NC(=O)[C@H](CCCNC(=N)N)NC(=O)[C@@H](CCCNC(=N)N)NC(=O)[C@H](CCCNC(=N)N)NC(=O)[C@H](Cc2ccc3ccccc3c2)NC(=O)[C@@H](Cc2ccccc2)NC1=O)C(N)=O)[C@@H](C)O)[C@@H](C)CC)C(C)(C)C [CNI95] (I: {Benzoyl(2,3-Cl2)}-[Tle]I[Tle]ITQH[dL]S[AEEA]K-NH2 / II: cyclo([2Nal]R[dR]R[dR]E[dF]); amide I:11-II:6 (inferred); ring closure inferred) | metabolised at 24 h, 5 μM (Serum stability assay): ~12%; higher potency than CNI93 in FA-based competition assay (Calcineurin (GST-CN)): ~5 fold; attenuation of NFAT activity in Jurkat cells relative to CNI93 [3]: vastly superior; concentrations decreasing cell viability (Jurkat cells): ≥ 25 µM; concentrations decreasing cell viability (HeLa cells [4]): ≥ 25 µM
73.8 | 0.635 | 73.3 | CCOc1ccc(NC(C)=O)cc1 [Phenacetine] | 
107 | 0.243 | 102 | C=C[C@H]1C[N@@]2CC[C@H]1C[C@@H]2[C@@H](O)c1ccnc2ccc(OC)cc12 [Quinidine] | 
